The source of these data is patent US20050106563A1 (Genesis Biotech Inc., priority 2003, published 2005).

The test system of experiment [1] is chicken anti-avian infectious bronchitis virus (IBV) sera. It is filed as binding.
For experiment [2], the system named is anti-SARS-CoV antibody in human sera. It counts as binding.
A further experiment deals with anti-SARS-CoV sera IgG. It is filed as binding, human.
In experiment [3] the test system is IgM specific to SARS-COV N1. It counts as binding, human.
Experiment [4] relates to cat anti-feline coronavirus sera. It counts as binding.

Where no end group is shown, it is not given here. Where only a bound is given, the exact number is not on record here.

Consider “(APATVCGPKL)8K4K2K-βA (also: octameric MAP on K4K2K lysine core with C-terminal βAla) [GA115]”, for which, in experiment [1], the “cross reaction with chicken anti-IBV antiserum” value (“cross reaction” for short) is recorded as “cross reacted only but weakly”.

Consider “(ASLPYGANKE)8K4K2K-βA (also: octameric MAP on K4K2K lysine core with C-terminal βAla) [GA146]”, for which, in experiment [2], the “serum binding during treatment versus recovery period (inflammation epitopes)” value is “more strongly during the treatment than during the recovery period”.

Take “(ASVVNIQKEI)8K4K2K-βA (also: octameric MAP on K4K2K lysine core with C-terminal βAla) [GA291]”: the “time dependency of antibody binding (time dependent epitopes)” value (“time dependency of antibody binding” for short) in the experiment on anti-SARS-CoV sera IgG is “immediate early (days 1-6)”.

On to “(DHIGTRNPNN)8K4K2K-βA (also: octameric MAP on K4K2K lysine core with C-terminal βAla) [GA151]”, for which, in experiment [2], the “Responder (AT>1, positive)/Total samples (R/T)” value is 10/10; the “Responder/Total samples (R/T) value” was 0; the “share of group 2 regarded as probable SARS patients (17 of 23 cases)” value is 74%. Also, in the experiment with anti-SARS-CoV sera IgG, the “detection of SARS-COV antibody (IgG) in patient #51” value (from here on “detection … (IgG) in patient #51”) is on record as “can be detected” and the “time dependency of antibody binding” value is given as “immediate early (days 1-6)”. Moreover, the “detection of SARS-COV antibody (IgM) in patient #51” value (shortened to “detection … (IgM) in patient #51”) in experiment [3] is on record as “can be detected”. In addition, the “cross reaction” value in experiment [1] is reported as “did not cross react”. Further, in experiment [4], the AbT amounted to 2.9 and the “response ratio R/T” value is recorded as 1/8.

For the substance “(FFGMSRIGME)8K4K2K-βA (also: octameric MAP on K4K2K lysine core with C-terminal βAla) [GA158]”, the “serum binding during treatment versus recovery period (inflammation epitopes)” value in experiment [2] is listed as “more strongly during the treatment than during the recovery period”. The “response ratio R/T” value is reported as 3/3 in experiment [1] and 8/8 in experiment [4].

“(GANKEGIVWV)8K4K2K-βA (also: octameric MAP on K4K2K lysine core with C-terminal βAla) [GA147]”: the “serum binding during treatment versus recovery period (inflammation epitopes)” value in experiment [2] is reported as “more strongly during the treatment than during the recovery period”. The “response ratio R/T” value in experiment [1] was 1/3.

“(GKMKELSPRW)8K4K2K-βA (also: octameric MAP on K4K2K lysine core with C-terminal βAla) [GA142]”: the “serum binding during treatment versus recovery period (inflammation epitopes)” value in experiment [2] is reported as “more strongly during the treatment than during the recovery period”.

Regarding “(GNCDVVIGII)8K4K2K-βA (also: octameric MAP: 8 copies on K4K2K lysine core with C-terminal βAla) [GA134]”, the “serum binding during treatment versus recovery period (inflammation epitopes)” value in experiment [2] is “more strongly during the treatment than during the recovery period”.

With “(GSITAQPVKI)8K4K2K-βA (also: octameric MAP: 8 copies on K4K2K lysine core with C-terminal βAla) [GA186]”, the “cross reaction” value in experiment [1] is reported as “cross reacted only but weakly”.

Regarding “(GTSWFITQRN)8K4K2K-βA (also: octameric MAP: 8 copies on K4K2K lysine core with C-terminal βAla) [GA129]”, in experiment [4], the AbT is more than 1 and the “response ratio R/T” value was 5/6.

As to “(HGAIKLDDKD)8K4K2K-βA (also: octameric MAP: 8 copies on K4K2K lysine core with C-terminal βAla) [GA162]”, the “time dependency of antibody binding” value in the experiment with anti-SARS-CoV sera IgG is given as “early (days 7-29)”.

With “(IAQFAPSASA)8K4K2K-βA (also: octameric MAP: 8 copies on K4K2K lysine core with C-terminal βAla) [GA156]”, the “serum binding during treatment versus recovery period (inflammation epitopes)” value in experiment [2] was “more strongly during the treatment than during the recovery period”.

For the substance “(IGYYRRATRR)8K4K2K-βA (also: octameric MAP: 8 copies on K4K2K lysine core with C-terminal βAla) [GA139]”, the “serum binding during treatment versus recovery period (inflammation epitopes)” value in experiment [2] was “more strongly during the treatment than during the recovery period”.

With “(IITTDNTFVS)8K4K2K-βA (also: octameric MAP: 8 copies on K4K2K lysine core with C-terminal βAla) [GA132]”, in experiment [2], the “serum binding during treatment versus recovery period (inflammation epitopes)” value is on record as “more strongly during the treatment than during the recovery period”.

On to “(INTNSGPDDQ)8K4K2K-βA (also: octameric MAP: 8 copies on K4K2K lysine core with C-terminal βAla) [GA137]”, for which the “serum binding during treatment versus recovery period (inflammation epitopes)” value in experiment [2] is “more strongly during the treatment than during the recovery period”.

As to “(KHWPQIAQFA)8K4K2K-βA (also: octameric MAP: 8 copies on K4K2K lysine core with C-terminal βAla) [GA155]”, in experiment [2], the “serum binding during treatment versus recovery period (inflammation epitopes)” value is given as “more strongly during the treatment than during the recovery period”. Moreover, the “response ratio R/T” value in experiment [1] is on record as 2/3; in experiment [4] it was 8/8.

For the substance “(KKTDEAQPLP)8K4K2K-βA (also: octameric MAP: 8 copies on K4K2K lysine core with C-terminal βAla) [GA170]”, in experiment [2], the “Responder (AT>1, positive)/Total samples (R/T)” value was 10/10; the “Responder/Total samples (R/T) value” was 0; the “share of group 2 regarded as probable SARS patients (17 of 23 cases)” value is recorded as 74%. Moreover, in the experiment on anti-SARS-CoV sera IgG, the “detection … (IgG) in patient #51” value is on record as “can be detected” and the “time dependency of antibody binding” value is given as “immediate early (days 1-6)”. Moreover, the “cross reaction” value in experiment [1] is “cross reacted only but weakly”. In experiment [4], the “response ratio R/T” value is on record as 0/8.

With “(KYFKNHTSPD)8K4K2K-βA (also: octameric MAP: 8 copies on K4K2K lysine core with C-terminal βAla) [GA287]”, the “time dependency of antibody binding” value in the experiment with anti-SARS-CoV sera IgG is reported as “immediate early (days 1-6)”.

In the case of “(LQLPQGTTLP)8K4K2K-βA (also: octameric MAP: 8 copies on K4K2K lysine core with C-terminal βAla) [GA154]”, the “detection … (IgM) in patient #51” value in experiment [3] was “can be detected”.

Take “(LRIPVTAEVGSSYFK)8K4K2K-βA (also: octameric MAP: 8 copies on K4K2K lysine core with C-terminal βAla) [GA6, control polypeptide, WSSV VP28 52-66]”: the “response ratio R/T” value in experiment [1] was 1/3; in experiment [4] it was 8/8.

Take “(LSPRWYFYYL)8K4K2K-βA (also: octameric MAP: 8 copies on K4K2K lysine core with C-terminal βAla) [GA143]”: the “serum binding during treatment versus recovery period (inflammation epitopes)” value in experiment [2] was “more strongly during the treatment than during the recovery period”.

On to “(NAATVLQLPQ)8K4K2K-βA (also: octameric MAP: 8 copies on K4K2K lysine core with C-terminal βAla) [GA153]”, for which the “detection … (IgM) in patient #51” value in experiment [3] is “can be detected”.

For “(PPTEPKKDKK)8K4K2K-βA (also: octameric MAP: 8 copies on K4K2K lysine core with C-terminal βAla) [GA168]”, in the experiment with anti-SARS-CoV sera IgG, the “detection … (IgG) in patient #51” value is reported as “can be detected” and the “time dependency of antibody binding” value is “immediate early (days 1-6)”.

Regarding “(QPTVTLLPAA)8K4K2K-βA (also: octameric MAP: 8 copies on K4K2K lysine core with C-terminal βAla) [GA173]”, the “cross reaction” value in experiment [1] was “cross reacted only but weakly”.

For “(QRQKKQPTVT)8K4K2K-βA (also: octameric MAP: 8 copies on K4K2K lysine core with C-terminal βAla) [GA172]”, the “response ratio R/T” value in experiment [1] is recorded as 3/3; in experiment [4] it was 8/8.

In the case of “(RINWVTGGIA)8K4K2K-βA (also: octameric MAP: 8 copies on K4K2K lysine core with C-terminal βAla) [GA179]”, the “serum binding during treatment versus recovery period (inflammation epitopes)” value in experiment [2] is reported as “more strongly during the treatment than during the recovery period”. The “response ratio R/T” value in experiment [1] was 3/3; in experiment [4], 7/8.

Regarding “(RVDFCGKGYH)8K4K2K-βA (also: octameric MAP: 8 copies on K4K2K lysine core with C-terminal βAla) [GA117]”, in experiment [2], the “serum binding during treatment versus recovery period (inflammation epitopes)” value is recorded as “more strongly during the treatment than during the recovery period”. Also, the “response ratio R/T” value in experiment [1] is 1/3; in experiment [4] it was 6/8.

For the substance “(RYLRHGKLRP)8K4K2K-βA (also: octameric MAP: 8 copies on K4K2K lysine core with C-terminal βAla) [GA102]”, the “serum binding during treatment versus recovery period (inflammation epitopes)” value in experiment [2] is listed as “more strongly during the treatment than during the recovery period”. The “response ratio R/T” value in experiment [1] is 2/3; in experiment [4], 8/8.

On to “(YNYKYRYLRH)8K4K2K-βA (also: octameric MAP: 8 copies on K4K2K lysine core with C-terminal βAla) [GA101]”, for which the “serum binding during treatment versus recovery period (inflammation epitopes)” value in experiment [2] is reported as “more strongly during the treatment than during the recovery period”. The “response ratio R/T” value in experiment [1] is on record as 3/3; in experiment [4], 8/8.

With FVASFRLFAR (SARS Coronavirus) [GA203], in the experiment with anti-SARS-CoV sera IgG, the “detection … (IgG) in patient #51” value is on record as “can be detected” and the “time dependency of antibody binding” value is on record as “immediate early (days 1-6)”.

Consider LLACLCKHKK (SARS Coronavirus) [GA231], for which the “serum binding during treatment versus recovery period (inflammation epitopes)” value in experiment [2] is “more strongly during the treatment than during the recovery period”. For the same substance, in the experiment with anti-SARS-CoV sera IgG, the “detection … (IgG) in patient #51” value is “can be detected” and the “time dependency of antibody binding” value was “immediate early (days 1-6)”.

With MSRRRLLACL (SARS Coronavirus) [GA230], in the experiment with anti-SARS-CoV sera IgG, the “detection … (IgG) in patient #51” value is given as “can be detected” and the “time dependency of antibody binding” value was “immediate early (days 1-6)”.

In the case of NYKYRYLRHGKLRPFERDISNVPFS [GA91], the “response ratio R/T” value in experiment [4] is on record as 6/8.
